# Values quoted from earlier work as cited in patent US11712474B2, “Reduction of post-surgery cancer metastasis by combination of cannabidiol and NR2F6 inhibition” (priority 2019, dated 2023).
# Read-outs that look alike come from different tables or passages of the source.
# What was measured:
# [1] = test system: mitogen-activated human peripheral blood mononuclear cells (PBMC)
# [2] = cells of CBD-treated mice vs untreated control mice
SMILES,IL-2 secretion [1],increase of the concentration of measurable IFN [1],measurable quantity of IL-1 [1],measurable quantity of TNF [1],"synthesis and/or release of IFN ([1]; high concentrations, 5-20 micrograms/ml)","insulitis, histological examination of pancreatic islets (NOD mice; CBD-treated NOD mice)",plasma levels of pro-inflammatory cytokines IFN-gamma and TNF-alpha (NOD mice; CBD-treated NOD mice),"incidence of diabetes (NOD mice; CBD-treated NOD mice, 86% in non-treated control mice)",Th1-associated cytokine production of in vitro activated T-cells and peritoneal macrophages (NOD mice; [2]),production of Th2-associated cytokines IL-4 and IL-10 (NOD mice; [2]),synthesis and/or release of IFN [1]
"C=C(C)[C@@H]1CCC(C)=C[C@H]1c1c(O)cc(CCCCC)cc1O [CBD, cannabidiol]",no effect,68%,decrease,decrease,completely blocked,significantly reduced,significant reduction,30%,significantly reduced,increased,
"CCCCCc1cc(O)c2c(c1)OC(C)(C)[C@@H]1CCC(C)=C[C@@H]21 [THC, delta-9-tetrahydrocannabinol]",no effect,139%,,,,,,,,,completely blocked
